Measurements taken from the NIST ThermoML archive (doi:10.1021/acs.jced.8b01146).
Several values for one entry are separate records, joined by “and”; a condition that tells them apart may be missing. Identical values can stand only once.

Columns and labels:
[1] = xn = mol fraction of the nth substance listed; details: 100 kPa, Liquid, Vibrating tube method
[2] = excess molar enthalpy (molar enthalpy of mixing); xn = mol fraction of the nth substance listed; details: 100 kPa, Liquid, Calvet calorimetry

CC1=CCC(=O)O1 [5-methylfuran-2(3H)-one] + O
Details	excess molar enthalpy, [2]	mass density, [1]
288.15 K, x1 = 0.001003	-0.000397 kcal/mol and -0.000394 kcal/mol	999.878 kg/m3 and 999.871 kg/m3
288.15 K, x1 = 0.002004	-0.000729 kcal/mol	1000.64 kg/m3
288.15 K, x1 = 0.002005	-0.000727 kcal/mol	1000.64 kg/m3
288.15 K, x1 = 0.003003	-0.00101 kcal/mol	1001.39 kg/m3
288.15 K, x1 = 0.003004	-0.00101 kcal/mol	1001.39 kg/m3
288.15 K, x1 = 0.004	-0.00125 kcal/mol	1002.15 kg/m3
288.15 K, x1 = 0.004001	-0.00123 kcal/mol	1002.14 kg/m3
288.15 K, x1 = 0.004995	-0.00143 kcal/mol	1002.91 kg/m3
288.15 K, x1 = 0.004996	-0.00141 kcal/mol	1002.92 kg/m3
288.15 K, x1 = 0.00599	-0.00152 kcal/mol and -0.00155 kcal/mol	1003.65 kg/m3 and 1003.64 kg/m3
298.15 K, x1 = 0.001003	-2.65e-05 kcal/mol	997.759 kg/m3
298.15 K, x1 = 0.001004	-2.65e-05 kcal/mol	997.756 kg/m3
298.15 K, x1 = 0.002004	-6.21e-06 kcal/mol	998.467 kg/m3
298.15 K, x1 = 0.002006	-6.21e-06 kcal/mol	998.464 kg/m3
298.15 K, x1 = 0.003003	6.57e-05 kcal/mol	999.156 kg/m3
298.15 K, x1 = 0.003005	6.05e-05 kcal/mol	999.156 kg/m3
298.15 K, x1 = 0.004	0.000175 kcal/mol	999.847 kg/m3
298.15 K, x1 = 0.004003	0.000175 kcal/mol	999.843 kg/m3
298.15 K, x1 = 0.004993	0.000335 kcal/mol	1000.51 kg/m3
298.15 K, x1 = 0.004998	0.000332 kcal/mol	1000.53 kg/m3
298.15 K, x1 = 0.005987	0.000559 kcal/mol	1001.2 kg/m3
298.15 K, x1 = 0.005992	0.000571 kcal/mol	1001.21 kg/m3
308.15 K, x1 = 0.001003	0.000327 kcal/mol and 0.000325 kcal/mol	994.684 kg/m3
308.15 K, x1 = 0.002003	0.000693 kcal/mol	995.33 kg/m3
308.15 K, x1 = 0.002004	0.000693 kcal/mol	995.328 kg/m3
308.15 K, x1 = 0.003002	0.0011 kcal/mol	995.967 kg/m3
308.15 K, x1 = 0.003003	0.0011 kcal/mol	995.967 kg/m3
308.15 K, x1 = 0.003999	0.00155 kcal/mol	996.597 kg/m3
308.15 K, x1 = 0.004	0.00153 kcal/mol	996.594 kg/m3
308.15 K, x1 = 0.004994	0.00204 kcal/mol	997.199 kg/m3
308.15 K, x1 = 0.004995	0.00202 kcal/mol	997.205 kg/m3
308.15 K, x1 = 0.005987	0.00257 kcal/mol	997.78 kg/m3
308.15 K, x1 = 0.00599	0.00258 kcal/mol	997.837 kg/m3
318.15 K, x1 = 0.001003	0.000667 kcal/mol	990.808 kg/m3 and 990.803 kg/m3
318.15 K, x1 = 0.002003	0.00136 kcal/mol and 0.00137 kcal/mol	991.392 kg/m3 and 991.396 kg/m3
318.15 K, x1 = 0.003002	0.00211 kcal/mol and 0.0021 kcal/mol	991.977 kg/m3 and 991.98 kg/m3
318.15 K, x1 = 0.003998	0.00286 kcal/mol	992.55 kg/m3
318.15 K, x1 = 0.003999	0.00286 kcal/mol	992.546 kg/m3
318.15 K, x1 = 0.004993	0.00369 kcal/mol and 0.00367 kcal/mol	993.112 kg/m3 and 993.102 kg/m3
318.15 K, x1 = 0.005986	0.00455 kcal/mol	993.663 kg/m3
318.15 K, x1 = 0.005987	0.00456 kcal/mol	993.668 kg/m3

CC1CCCC(=O)O1 (centres undefined) [2H-pyran-2-one, tetrahydro-6-methyl-] + O
Details	excess molar enthalpy, [2]	mass density, [1]
288.15 K, x1 = 0.001653	-0.00342 kcal/mol	999.935 kg/m3
288.15 K, x1 = 0.002149	-0.00437 kcal/mol	1000.17 kg/m3
288.15 K, x1 = 0.002478	-0.00505 kcal/mol	1000.35 kg/m3
288.15 K, x1 = 0.002643	-0.00535 kcal/mol	1000.42 kg/m3
288.15 K, x1 = 0.003302	-0.0066 kcal/mol and -0.00666 kcal/mol	1000.74 kg/m3 and 1000.76 kg/m3
288.15 K, x1 = 0.004124	-0.00818 kcal/mol	1001.15 kg/m3
288.15 K, x1 = 0.004945	-0.00973 kcal/mol	1001.54 kg/m3
298.15 K, x1 = 0.001158	-0.00194 kcal/mol	997.57 kg/m3
298.15 K, x1 = 0.001653	-0.00273 kcal/mol	997.788 kg/m3
298.15 K, x1 = 0.002147	-0.00352 kcal/mol	998.009 kg/m3
298.15 K, x1 = 0.002641	-0.00431 kcal/mol	998.225 kg/m3
298.15 K, x1 = 0.0033	-0.00534 kcal/mol	998.509 kg/m3
298.15 K, x1 = 0.003306	-0.00541 kcal/mol	998.52 kg/m3
298.15 K, x1 = 0.003307	-0.00536 kcal/mol	998.507 kg/m3
298.15 K, x1 = 0.004125	-0.00661 kcal/mol	998.876 kg/m3
298.15 K, x1 = 0.004129	-0.00669 kcal/mol	998.875 kg/m3
298.15 K, x1 = 0.004131	-0.00664 kcal/mol	998.861 kg/m3
298.15 K, x1 = 0.004946	-0.0079 kcal/mol	999.23 kg/m3
298.15 K, x1 = 0.004951	-0.00787 kcal/mol	999.209 kg/m3
298.15 K, x1 = 0.004953	-0.00781 kcal/mol	999.206 kg/m3
308.15 K, x1 = 0.001656	-0.00216 kcal/mol	994.712 kg/m3
308.15 K, x1 = 0.002482	-0.00315 kcal/mol	995.04 kg/m3
308.15 K, x1 = 0.003307	-0.00409 kcal/mol and -0.00415 kcal/mol	995.379 kg/m3 and 995.363 kg/m3
308.15 K, x1 = 0.00413	-0.00511 kcal/mol	995.684 kg/m3
308.15 K, x1 = 0.004131	-0.00506 kcal/mol	995.714 kg/m3
308.15 K, x1 = 0.004953	-0.00603 kcal/mol	995.986 kg/m3
308.15 K, x1 = 0.004954	-0.00601 kcal/mol	996.02 kg/m3
318.15 K, x1 = 0.001655	-0.00147 kcal/mol and -0.00148 kcal/mol	990.83 kg/m3 and 990.824 kg/m3
318.15 K, x1 = 0.00248	-0.0022 kcal/mol	991.131 kg/m3
318.15 K, x1 = 0.002481	-0.00221 kcal/mol	991.124 kg/m3
318.15 K, x1 = 0.003305	-0.0029 kcal/mol	991.433 kg/m3
318.15 K, x1 = 0.003306	-0.00293 kcal/mol	991.423 kg/m3
318.15 K, x1 = 0.004127	-0.0036 kcal/mol	991.726 kg/m3
318.15 K, x1 = 0.004129	-0.00363 kcal/mol	991.723 kg/m3
318.15 K, x1 = 0.004948	-0.00429 kcal/mol	992.021 kg/m3
318.15 K, x1 = 0.004952	-0.00432 kcal/mol	992.018 kg/m3
